Measured values published in patent US20220112187A1, “PYRAZOLOPYRIDINE AMINE COMPOUNDS FOR THE TREATMENT OF AUTOIMMUNE DISEASE” (Hoffmann-La Roche Inc., priority 2018, published 2022).

Target: T1, human TLR8 (Homo sapiens, UniProt Q9NR97)
T1 sequence (Q9NR97 27-1041): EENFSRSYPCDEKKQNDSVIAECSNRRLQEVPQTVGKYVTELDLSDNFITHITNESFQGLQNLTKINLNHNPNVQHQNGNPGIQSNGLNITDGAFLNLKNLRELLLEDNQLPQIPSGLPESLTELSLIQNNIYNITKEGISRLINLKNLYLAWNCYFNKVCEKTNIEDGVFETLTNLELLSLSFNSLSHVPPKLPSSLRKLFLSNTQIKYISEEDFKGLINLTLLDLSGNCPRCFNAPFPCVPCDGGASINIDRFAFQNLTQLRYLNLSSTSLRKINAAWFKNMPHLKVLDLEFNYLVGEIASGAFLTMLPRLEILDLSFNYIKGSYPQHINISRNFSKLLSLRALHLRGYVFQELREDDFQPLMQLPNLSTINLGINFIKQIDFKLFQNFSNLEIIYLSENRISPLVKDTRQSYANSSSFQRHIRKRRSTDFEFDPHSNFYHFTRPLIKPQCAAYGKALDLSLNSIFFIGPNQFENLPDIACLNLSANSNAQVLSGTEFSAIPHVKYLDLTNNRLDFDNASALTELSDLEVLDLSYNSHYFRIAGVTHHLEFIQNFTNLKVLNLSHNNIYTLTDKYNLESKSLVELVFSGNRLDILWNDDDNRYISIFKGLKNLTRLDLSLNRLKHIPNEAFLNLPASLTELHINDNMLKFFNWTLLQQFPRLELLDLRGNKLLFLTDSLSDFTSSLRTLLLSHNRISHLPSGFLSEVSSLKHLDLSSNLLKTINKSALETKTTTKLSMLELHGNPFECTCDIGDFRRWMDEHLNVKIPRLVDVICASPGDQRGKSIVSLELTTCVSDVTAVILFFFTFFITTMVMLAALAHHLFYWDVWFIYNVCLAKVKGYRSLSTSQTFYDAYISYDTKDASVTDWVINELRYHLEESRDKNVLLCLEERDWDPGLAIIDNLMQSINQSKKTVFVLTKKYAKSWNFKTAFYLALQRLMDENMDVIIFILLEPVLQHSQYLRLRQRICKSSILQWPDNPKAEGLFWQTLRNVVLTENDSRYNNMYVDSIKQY
Experiment: HEK293-Blue-hTLR-8 cells assay (SEAP reporter, R848 stimulation)
Type: cell-based
Settings: HEK293-Blue-hTLR8 cells, R848 ligand, 20 hrs incubation
Excerpt: A stable HEK293-Blue-hTLR-8 cell line was purchased from InvivoGen (Cat. #: hkb-htlr8, San Diego, Calif., USA). These cells were originally designed for studying the stimulation of human TLR8 by monitoring the activation of NF-κB. A SEAP (secreted embryonic alkaline phosphatase) reporter gene was placed under the control of the IFN-β minimal promoter fused to five NF-κB and AP-1-binding sites. The SEAP was induced by activating NF-κB and AP-1 via stimulating HEK-Blue hTLR8 cells with TLR8 ligands. Therefore the reporter expression was declined by TLR8 antagonist under the stimulation of a ligand, such as R848, for incubation of 20 hrs. The cell culture supernatant SEAP reporter activity was determined using QUANTI-Blue™ kit (Cat. #: rep-qb1, Invivogen, San Diego, Ca, USA) at a wavelength of 640 nm, a detection medium that turns purple or blue in the presence of alkaline phosphatase.
HEK293-Blue-hTLR8 cells were incubated at a density of 250,000˜450,000 cells/mL in a volume of 170 μL in a 96-well plate in Dulbecco's Modified Eagle's medium (DMEM) containing 4.5 g/L glucose, 50 U/mL penicillin, […], […], 2 mM L-glutamine, 10% (v/v) heat-inactivated fetal bovine serum with addition of 20 μL test compound in a serial dilution in the presence of final DMSO at 1% and 10 μL of 60 uM R848 in above DMEM, perform incubation under 37° C. in a CO2 incubator for 20 hrs. Then 20 μL of the supernatant from each well was incubated with 180 μL Quanti-blue substrate solution at 37° C. for 2 hrs and the absorbance was read at 620˜655 nm using a spectrophotometer. The signalling pathway that TLR8 activation leads to downstream NF-κB activation has been widely accepted, and therefore similar reporter assay was modified for evaluating TLR8 antagonist.

First: C[C@@H]1CN(c2ccc(C#N)n3nccc23)C[C@H](CN2CCC3(CCCNC3)CC2)O1 [Example 27, 4-[(2S,6R)-2-(2,9-diazaspiro[5.5]undecan-9-ylmethyl)-6-methyl-morpholin-4-yl]pyrazolo[1,5-a]pyridine-7-carbonitrile]
Second: C[C@@H]1CN(c2ccc(C#N)n3nccc23)C[C@H](CN2CCCC3(CCNC3)C2)O1 (stereo partly drawn) [Example 44, 4-[(2S,6R)-2-(2,7-diazaspiro[4.5]decan-7-ylmethyl)-6-methyl-morpholin-4-yl]pyrazolo[1,5-a]pyridine-7-carbonitrile]
The IC50 of the first is 7.6-fold higher: 190 nM for the first, 25 nM for the second. The second is the more potent here.

Compared with `CC1CN(C[C@H]2CN(c3ccc(C#N)n4nccc34)C[C@@H](C)O2)CCN1` (stereo partly drawn) [Example 28, 4-[(2R,6S)-2-methyl-6-[(3-methylpiperazin-1-yl)methyl]morpholin-4-yl]pyrazolo[1,5-a]pyridine-7-carbonitrile], `C[C@@H]1CN(c2ccc(C#N)n3nccc23)C[C@H](CN2CCC3NCCC3C2)O1` (stereo partly drawn) [Example 41, 4-[(2S,6R)-2-(1,2,3,3a,4,6,7,7a-octahydropyrrolo[3,2-c]pyridin-5-ylmethyl)-6-methyl-morpholin-4-yl]pyrazolo[1,5-a]pyridine-7-carbonitrile] is 2.2-fold lower in IC50: 65 nM for the first, 29 nM for the second.

First: C[C@@H]1CN(c2ccc(C#N)n3nccc23)C[C@H](CN2CCC(C)(N)CC2)O1 [Example 29, 4-[(2S,6R)-2-[(4-amino-4-methyl-1-piperidyl)methyl]-6-methyl-morpholin-4-yl]pyrazolo[1,5-a]pyridine-7-carbonitrile]
Second: C[C@@H]1CN(c2ccc(C#N)n3nccc23)C[C@H](CN2CCC3(CCN3)CC2)O1 [Example 48, 4-[(2S,6R)-2-(1,7-diazaspiro[3.5]nonan-7-ylmethyl)-6-methyl-morpholin-4-yl]pyrazolo[1,5-a]pyridine-7-carbonitrile]
The IC50 of the first is 2.1-fold lower: 52 nM for the first, 110 nM for the second.

`C[C@@H]1CN(c2ccc(C#N)n3nccc23)C[C@H](CN2CC3CCC2CN3)O1` (stereo partly drawn) [Example 30, 4-[(2S,6R)-2-(2,5-diazabicyclo[2.2.2]octan-2-ylmethyl)-6-methyl-morpholin-4-yl]pyrazolo[1,5-a]pyridine-7-carbonitrile] and `C[C@@H]1CN(c2ccc(C#N)n3nccc23)C[C@H](CN2CC3CCC(C2)N3)O1` [Example 31, 4-[(2S,6R)-2-(3,8-diazabicyclo[3.2.1]octan-3-ylmethyl)-6-methyl-morpholin-4-yl]pyrazolo[1,5-a]pyridine-7-carbonitrile] are within 1.5-fold of each other in IC50: 100 nM for the first, 97 nM for the second.

First: C[C@@H]1CN(c2ccc(C#N)n3nccc23)C[C@H](CN2CCCC3(CCNCC3)C2)O1 [Example 32, 4-[(2S,6R)-2-(2,9-diazaspiro[5.5]undecan-2-ylmethyl)-6-methyl-morpholin-4-yl]pyrazolo[1,5-a]pyridine-7-carbonitrile]
Second: C[C@@H]1CN(c2ccc(C#N)n3nccc23)C[C@H](CN2CC3(CCCNCC3)C2)O1 [Example 46, 4-[(2S,6R)-2-(2,8-diazaspiro[3.6]decan-2-ylmethyl)-6-methyl-morpholin-4-yl]pyrazolo[1,5-a]pyridine-7-carbonitrile]
The IC50 of the first is 1.6-fold lower: 91 nM for the first, 150 nM for the second. The first is the more potent here.

Compared with `C[C@@H]1CN(c2ccc(C#N)n3nccc23)C[C@H](CN2CCCC3(CNC3)C2)O1` [Example 33, 4-[(2S,6R)-2-(2,6-diazaspiro[3.5]nonan-6-ylmethyl)-6-methyl-morpholin-4-yl]pyrazolo[1,5-a]pyridine-7-carbonitrile], `C[C@@H]1CN(c2ccc(C#N)n3nccc23)C[C@H](CN2CCNC3(CC3)C2)O1` [Example 40, 4-[(2S,6R)-2-(4,7-diazaspiro[2.5]octan-7-ylmethyl)-6-methyl-morpholin-4-yl]pyrazolo[1,5-a]pyridine-7-carbonitrile] is 2.6-fold higher in IC50: 54 nM for the first, 140 nM for the second. The first is the more potent here.

Going from `C[C@@H]1CN(c2ccc(C#N)n3nccc23)C[C@H](CN2CCC(N)C(F)(F)C2)O1` (stereo partly drawn) [Example 34, 4-[(2S,6R)-2-[(4-amino-3,3-difluoro-1-piperidyl)methyl]-6-methyl-morpholin-4-yl]pyrazolo[1,5-a]pyridine-7-carbonitrile] to `C[C@@H]1CN(c2ccc(C#N)n3nccc23)C[C@H](CN2CC(N)C(F)(F)C2)O1` (stereo partly drawn) [Example 35, 4-[(2S,6R)-2-[(4-amino-3,3-difluoro-pyrrolidin-1-yl)methyl]-6-methyl-morpholin-4-yl]pyrazolo[1,5-a]pyridine-7-carbonitrile], the IC50 rises from 65 nM to 950 nM (15-fold). The first is the more potent here.

First: C[C@@H]1CN(c2ccc(C#N)n3nccc23)C[C@H](CN2CC3CCC(C2)C3N)O1 (stereo partly drawn) [Example 36, 4-[(2S,6R)-2-[(8-amino-3-azabicyclo[3.2.1]octan-3-yl)methyl]-6-methyl-morpholin-4-yl]pyrazolo[1,5-a]pyridine-7-carbonitrile]
Second: C[C@@H]1CN(c2ccc(C#N)n3nccc23)C[C@H](CN2CC3CCNCC3C2)O1 (stereo partly drawn) [Example 49, 4-[(2S,6R)-2-(1,3,3a,4,5,6,7,7a-octahydropyrrolo[3,4-c]pyridin-2-ylmethyl)-6-methyl-morpholin-4-yl]pyrazolo[1,5-a]pyridine-7-carbonitrile]
The IC50 of the first is 1.7-fold lower: 90 nM for the first, 150 nM for the second. The first is the more potent here.

`C[C@@H]1CN(c2ccc(C#N)n3nccc23)C[C@H](CN2C3CCC2CC(N)C3)O1` (stereo partly drawn) [Example 37, 4-[(2S,6R)-2-[(3-amino-8-azabicyclo[3.2.1]octan-8-yl)methyl]-6-methyl-morpholin-4-yl]pyrazolo[1,5-a]pyridine-7-carbonitrile] and `C[C@@H]1CN(c2ccc(C#N)n3nccc23)C[C@H](CN2C3CCC2CNC3)O1` [Example 43, 4-[(2S,6R)-2-(3,8-diazabicyclo[3.2.1]octan-8-ylmethyl)-6-methyl-morpholin-4-yl]pyrazolo[1,5-a]pyridine-7-carbonitrile] are within 1.5-fold of each other in IC50: 45 nM for the first, 31 nM for the second.

Going from `C[C@@H]1CN(c2ccc(C#N)n3nccc23)C[C@H](CN2CCN[C@H](c3ccccc3)C2)O1` [Example 38, 4-[(2R,6S)-2-methyl-6-[[(3R)-3-phenylpiperazin-1-yl]methyl]morpholin-4-yl]pyrazolo[1,5-a]pyridine-7-carbonitrile] to `C[C@@H]1CN(c2ccc(C#N)n3nccc23)C[C@H](CN2CC3CCCNC3C2)O1` (stereo partly drawn) [Example 45, 4-[(2S,6R)-2-(1,2,3,4,4a,5,7,7a-octahydropyrrolo[3,4-b]pyridin-6-ylmethyl)-6-methyl-morpholin-4-yl]pyrazolo[1,5-a]pyridine-7-carbonitrile], the IC50 rises from 37 nM to 230 nM (6.2-fold).

Going from `C[C@@H]1CN(c2ccc(C#N)n3nccc23)C[C@H](CN2CCC(N3CCNCC3)CC2)O1` [Example 39, 4-[(2R,6S)-2-methyl-6-[(4-piperazin-1-yl-1-piperidyl)methyl]morpholin-4-yl]pyrazolo[1,5-a]pyridine-7-carbonitrile] to `C[C@@H]1CN(c2ccc(C#N)n3nccc23)C[C@H](CN2CCC3(CCCCN3)CC2)O1` [Example 47, 4-[(2S,6R)-2-(1,9-diazaspiro[5.5]undecan-9-ylmethyl)-6-methyl-morpholin-4-yl]pyrazolo[1,5-a]pyridine-7-carbonitrile], the IC50 falls from 180 nM to 31 nM (5.8-fold). The second is the more potent here.

Compared with `C[C@@H]1CN(c2ccc(C#N)n3nccc23)C[C@H](CN2CCC3(CCCCN3)C2)O1` (stereo partly drawn) [Example 42, 4-[(2S,6R)-2-(2,6-diazaspiro[4.5]decan-2-ylmethyl)-6-methyl-morpholin-4-yl]pyrazolo[1,5-a]pyridine-7-carbonitrile], `CC1CC(N)CCN1C[C@H]1CN(c2ccc(C#N)n3nccc23)C[C@@H](C)O1` (stereo partly drawn) [Example 51, 4-[(2S,6R)-2-[(4-amino-2-methyl-1-piperidyl)methyl]-6-methyl-morpholin-4-yl]pyrazolo[1,5-a]pyridine-7-carbonitrile] is 1.6-fold lower in IC50: 65 nM for the first, 40 nM for the second.
